In ChEMBL document CHEMBL1201862, “PubChem BioAssay data set” (2004):
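Results reflect a 48-hour exposure of cells in 96-well plates to compound at five concentrations. The concentration for 50% growth inhibition is given as GI50.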 Calls of active or inactive are those of the source. Cut-off read from the data, not from the text of the source: active = GI50 up to about 1.1 µM and inactive = higher.

What was measured:
Assay in all cases: NCI tumour cell line growth inhibition, 48 h
A498 = tested on: A498
Hs-578T = tested on: Hs-578T
MDA-N = tested on: MDA-N
HT-29 = tested on: HT-29
MDA-MB-435 = tested on: MDA-MB-435
MOLT-4 = tested on: MOLT-4
M14 = tested on: M14
IGROV-1 = tested on: IGROV-1
T47D = tested on: T47D
HCC 2998 = tested on: HCC 2998
SK-MEL-5 = tested on: SK-MEL-5
Malme-3M = tested on: Malme-3M
OVCAR-3 = tested on: OVCAR-3
BT-549 = tested on: BT-549
MCF7 = tested on: MCF7
SF-295 = tested on: SF-295
OVCAR-5 = tested on: OVCAR-5
HCT-15 = tested on: HCT-15
MDA-MB-231 = tested on: MDA-MB-231
SR = tested on: SR
NCI-H460 = tested on: NCI-H460
HL-60 = tested on: HL-60
A549 = tested on: A549
EKVX = tested on: EKVX
CAKI-1 = tested on: CAKI-1
NCI/ADR-RES = tested on: NCI/ADR-RES
SK-MEL-2 = tested on: SK-MEL-2
OVCAR-8 = tested on: OVCAR-8
DU-145 = tested on: DU-145
LOX IMVI = tested on: LOX IMVI
HOP-92 = tested on: HOP-92
OVCAR-4 = tested on: OVCAR-4
HCT-116 = tested on: HCT-116
NCI-H23 = tested on: NCI-H23
SK-OV-3 = tested on: SK-OV-3
SW-620 = tested on: SW-620
KM12 = tested on: KM12
UACC-62 = tested on: UACC-62
ACHN = tested on: ACHN
NCI-H522 = tested on: NCI-H522
U-251 = tested on: U-251
UACC-257 = tested on: UACC-257
RXF 393 = tested on: RXF 393
CCRF-CEM = tested on: CCRF-CEM
K562 = tested on: K562
SK-MEL-28 = tested on: SK-MEL-28
786-0 = tested on: 786-0
SF-539 = tested on: SF-539
NCI-H226 = tested on: NCI-H226
TK-10 = tested on: TK-10
HOP-62 = tested on: HOP-62
PC-3 = tested on: PC-3
RPMI-8226 = tested on: RPMI-8226
SN12C = tested on: SN12C
UO-31 = tested on: UO-31
COLO 205 = tested on: COLO 205
SNB-19 = tested on: SNB-19
SF-268 = tested on: SF-268
SNB-75 = tested on: SNB-75

Measured: GI50

Cc1ccc(/C=C2\CN(C)CC3=C2OC(N)=C(C#N)C3c2ccc(C)cc2)cc1 (stereo not given)
inactive: A498 16000 nM | Hs-578T 46300 nM | MDA-N 17200 nM | HT-29 16100 nM | MDA-MB-435 15800 nM | MOLT-4 7760 nM | M14 20600 nM | IGROV-1 7500 nM | T47D 7110 nM | HCC 2998 15200 nM | SK-MEL-5 25900 nM | Malme-3M 20300 nM | OVCAR-3 12100 nM | BT-549 16700 nM | MCF7 18000 nM | SF-295 16800 nM | OVCAR-5 22800 nM | MDA-MB-231 > 38500 nM | SR 19900 nM | NCI-H460 17900 nM | A549 14400 nM | EKVX 17100 nM | CAKI-1 19500 nM | NCI/ADR-RES 20700 nM | SK-MEL-2 39900 nM | OVCAR-8 13400 nM | DU-145 17900 nM | LOX IMVI 13500 nM | OVCAR-4 12200 nM | HCT-116 12600 nM | NCI-H23 16000 nM | SK-OV-3 9840 nM | SW-620 32000 nM | KM12 15500 nM | UACC-62 18400 nM | ACHN 18800 nM | NCI-H522 12200 nM | U-251 34700 nM | UACC-257 18800 nM | RXF 393 11300 nM | CCRF-CEM 4200 nM | K562 11200 nM | SK-MEL-28 27800 nM | 786-0 15600 nM | SF-539 41700 nM | NCI-H226 22200 nM | TK-10 31500 nM | HOP-62 22700 nM | PC-3 15700 nM | RPMI-8226 9980 nM | SN12C 17300 nM | UO-31 17600 nM | COLO 205 17000 nM | SNB-19 26400 nM | SF-268 30100 nM
14100 nM: HCT-15
active: HL-60 < 10 nM | HOP-92 1050 nM

CC(=O)c1cc2c(s1)C(=O)c1scc(C(C)=O)c1C2=O
308 nM: HCT-15
inactive: A498 2340 nM | HT-29 1810 nM | HCC 2998 1980 nM | OVCAR-5 1570 nM | A549 1410 nM | DU-145 1520 nM | SK-OV-3 1960 nM | KM12 1390 nM | SF-539 1210 nM | NCI-H226 1690 nM | TK-10 3520 nM | COLO 205 1970 nM | SNB-19 1150 nM
active: Hs-578T 279 nM | MDA-N 198 nM | MDA-MB-435 224 nM | M14 736 nM | IGROV-1 514 nM | T47D 254 nM | SK-MEL-5 327 nM | SNB-75 598 nM | Malme-3M 385 nM | OVCAR-3 73.8 nM | BT-549 1120 nM | MCF7 163 nM | SF-295 883 nM | MDA-MB-231 225 nM | SR 107 nM | NCI-H460 345 nM | EKVX 485 nM | CAKI-1 929 nM | NCI/ADR-RES 240 nM | SK-MEL-2 586 nM | OVCAR-8 230 nM | LOX IMVI 71.1 nM | HOP-92 318 nM | OVCAR-4 197 nM | HCT-116 293 nM | NCI-H23 432 nM | SW-620 394 nM | UACC-62 260 nM | ACHN 248 nM | NCI-H522 378 nM | U-251 228 nM | UACC-257 223 nM | RXF 393 348 nM | CCRF-CEM 235 nM | K562 272 nM | SK-MEL-28 673 nM | 786-0 724 nM | HOP-62 467 nM | PC-3 605 nM | RPMI-8226 209 nM | SN12C 273 nM | UO-31 455 nM | SF-268 319 nM
